Where a SMILES comes first, the peptide text is derived from it.
Target: T1, Elastase from human neutrophils (Homo sapiens, UniProt P08246)
T1 sequence (P08246 30-267): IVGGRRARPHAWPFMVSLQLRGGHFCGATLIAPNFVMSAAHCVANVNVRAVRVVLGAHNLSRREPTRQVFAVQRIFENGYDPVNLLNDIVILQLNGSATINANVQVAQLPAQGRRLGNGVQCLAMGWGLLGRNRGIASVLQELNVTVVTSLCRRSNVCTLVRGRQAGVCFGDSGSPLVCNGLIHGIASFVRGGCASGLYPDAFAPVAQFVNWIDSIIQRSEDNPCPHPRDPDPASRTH
Test: Enzymatic assay, elastase
Conditions: Elastase IC50

IC50	Structure (SMILES)
26 nM	CC[C@H](C)[C@@H]1NC(=O)[C@H](CO)NC(=O)[C@H](C)NC(=O)[C@H]([C@@H](C)O)NC(=O)[C@H](CCC(=O)O)NC(=O)[C@H](CCc2ccccc2)NC(=O)[C@@H]2CCCN2C(=O)[C@H]2CCCN2C(=O)[C@H](Cc2ccc(O)cc2)NC(=O)[C@H](CCCCN)NC(=O)[C@H](CCC(N)=O)NC(=O)[C@@H]2CCCN2C(=O)[C@@H]2CCCN2C1=O [Ex. 132] (HELM PEPTIDE1{[O=C([C@H](CCc1ccccc1)N[*:1])[*:2]].E.T.A.S.I.P.P.Q.K.Y.[dP].P}$PEPTIDE1,PEPTIDE1,1:R1-13:R2$$$V2.0)
23 nM	CC[C@H](C)[C@@H]1NC(=O)[C@H](CO)NC(=O)[C@H](C)NC(=O)[C@H]([C@@H](C)O)NC(=O)[C@H]([C@@H](C)O)NC(=O)[C@H](CCc2ccccc2)NC(=O)[C@@H]2CCCN2C(=O)[C@H]2CCCN2C(=O)[C@H](Cc2ccc(O)cc2)NC(=O)[C@H](CCC(N)=O)NC(=O)[C@H](CCC(N)=O)NC(=O)[C@@H]2CCCN2C(=O)[C@@H]2CCCN2C1=O [Ex. 134] (HELM PEPTIDE1{[O=C([C@H](CCc1ccccc1)N[*:1])[*:2]].T.T.A.S.I.P.P.Q.Q.Y.[dP].P}$PEPTIDE1,PEPTIDE1,1:R1-13:R2$$$V2.0)
23 nM	CCCCCCCC[C@@H]1NC(=O)[C@H](CO)NC(=O)[C@H](C)NC(=O)[C@H]([C@@H](C)O)NC(=O)[C@H]([C@@H](C)O)NC(=O)[C@H](CCCC)NC(=O)[C@@H]2CCCN2C(=O)[C@H]2CCCN2C(=O)[C@H](Cc2ccc(O)cc2)NC(=O)[C@H](CCC(N)=O)NC(=O)[C@H](CCC(N)=O)NC(=O)[C@@H]2CCCN2C(=O)[C@@H]2CCCN2C1=O [Ex. 135] (HELM PEPTIDE1{[Nle].T.T.A.S.[CCCCCCCC[C@H](N[*:1])C(=O)[*:2]].P.P.Q.Q.Y.[dP].P}$PEPTIDE1,PEPTIDE1,1:R1-13:R2$$$V2.0)
18 nM	CCCC[C@@H]1NC(=O)[C@@H]2CCCN2C(=O)[C@H]2CCCN2C(=O)[C@H](Cc2ccc(O)cc2)NC(=O)[C@H](CCC(N)=O)NC(=O)[C@H](CCC(N)=O)NC(=O)[C@@H]2CCCN2C(=O)[C@@H]2CCCN2C(=O)[C@H](CC2CCCCC2)NC(=O)[C@H](CO)NC(=O)[C@H](C)NC(=O)[C@H]([C@@H](C)O)NC(=O)[C@H]([C@@H](C)O)NC1=O [Ex. 139] (HELM PEPTIDE1{[Nle].T.T.A.S.[Cha].P.P.Q.Q.Y.[dP].P}$PEPTIDE1,PEPTIDE1,1:R1-13:R2$$$V2.0)
16 nM	CC[C@H](C)[C@@H]1NC(=O)[C@H](CO)NC(=O)[C@H](C)NC(=O)[C@H]([C@@H](C)O)NC(=O)[C@H](CCC(N)=O)NC(=O)[C@H](CCc2ccccc2)NC(=O)[C@@H]2CCCN2C(=O)[C@H]2CCCN2C(=O)[C@H](Cc2ccc(O)cc2)NC(=O)[C@H]([C@@H](C)O)NC(=O)[C@H](CCC(N)=O)NC(=O)[C@@H]2CCCN2C(=O)[C@@H]2CCCN2C1=O [Ex. 142] (HELM PEPTIDE1{[O=C([C@H](CCc1ccccc1)N[*:1])[*:2]].Q.T.A.S.I.P.P.Q.T.Y.[dP].P}$PEPTIDE1,PEPTIDE1,1:R1-13:R2$$$V2.0)
11 nM	CCCCCCCC[C@@H]1NC(=O)[C@@H]2CCCN2C(=O)[C@H]2CCCN2C(=O)[C@H](Cc2ccc(O)cc2)NC(=O)[C@H](CCC(N)=O)NC(=O)[C@H](CCC(N)=O)NC(=O)[C@@H]2CCCN2C(=O)[C@@H]2CCCN2C(=O)[C@H]([C@@H](C)CC)NC(=O)[C@H](CO)NC(=O)[C@H](C)NC(=O)[C@H]([C@@H](C)O)NC(=O)[C@H]([C@@H](C)O)NC1=O [Ex. 147] (HELM PEPTIDE1{[CCCCCCCC[C@H](N[*:1])C(=O)[*:2]].T.T.A.S.I.P.P.Q.Q.Y.[dP].P}$PEPTIDE1,PEPTIDE1,1:R1-13:R2$$$V2.0)

Structure (SMILES)	IC50
CCCCCCCC[C@@H]1NC(=O)[C@@H]2CCCN2C(=O)[C@H]2CCCN2C(=O)[C@H](Cc2ccccc2)NC(=O)[C@@H]2CSSC[C@H](NC1=O)C(=O)N[C@@H]([C@@H](C)O)C(=O)N[C@@H](C)C(=O)N[C@@H](CO)C(=O)N[C@@H]([C@@H](C)CC)C(=O)N1CCC[C@H]1C(=O)N1CCC[C@H]1C(=O)N[C@@H](CCC(N)=O)C(=O)N2 [Ex. 145] (HELM PEPTIDE1{[CCCCCCCC[C@H](N[*:1])C(=O)[*:2]].C.T.A.S.I.P.P.Q.C.F.[dP].P}$PEPTIDE1,PEPTIDE1,2:R3-10:R3|PEPTIDE1,PEPTIDE1,1:R1-13:R2$$$V2.0)	14 nM

Reference: patent publication US8658604B2, “Template-fixed beta-hairpin peptidomimetics with protease inhibitory activity” (Polyphor Ltd, priority 2005, dated 2014)
